Structures can show the parent of a compound that is named as a salt.
| SMILES | melting point |
| --- | --- |
| COc1ccc(S(=O)(=O)N2CCc3cccc(NC(=O)c4ccc(C#N)cc4)c32)cc1 [compound 23, 4-Cyano-N-[1-(4-methoxy-benzenesulfonyl)-2,3-dihydro-1H-indol-7-yl]-benzamide] | 179 to 180 °C |
| COc1ccc(S(=O)(=O)N2CCc3cccc(NC(=O)c4ccc(F)cc4)c32)cc1 [compound 21, 4-Fluoro-N-[1-(4-methoxy-benzenesulfonyl)-2,3-dihydro-1H-indol-7-yl]-benzamide] | 184 to 185 °C |
| COc1ccc(S(=O)(=O)N2CCc3cccc(NC(=O)c4ccc([N+](=O)[O-])cc4)c32)cc1 [compound 22, N-[1-(4-Methoxy-benzenesulfonyl)-2,3-dihydro-1H-indol-7-yl]-4-nitro-benzamide] | 151 to 152 °C |
| COc1ccc(S(=O)(=O)N2CCc3cccc(NC(=O)c4ccccc4)c32)cc1 [compound 20, N-[1-(4-Methoxy-benzenesulfonyl)-2,3-dihydro-1H-indol-7-yl]-benzamide] | 205 to 206 °C |
| COc1ccc(S(=O)(=O)N2CCc3cc(Br)cc(NC(=O)c4ccco4)c32)cc1 [compound 38, Furan-2-carboxylic acid [5-bromo-1-(4-methoxy-benzenesulfonyl) -2,3-dihydro-1H-indol-7-yl]-amide] | 170 to 171 °C |
| COc1ccc(S(=O)(=O)N2CCc3cc(Br)cc(NC(=O)c4ccncc4)c32)cc1 [compound 37, N-[5-Bromo-1-(4-methoxy-benzenesulfonyl)-2,3-dihydro-1H-indol-7-yl]-isonicotinamide] | 191 to 192 °C |
| COc1ccc(S(=O)(=O)N2CCc3cccc(NC(=O)c4ccco4)c32)cc1 [compound 27, Furan-2-carboxylic acid [1-(4-methoxy-benzenesulfonyl)-2,3-dihydro-1H-indol-7-yl]-amide] | 163 to 164 °C |
| COc1ccc(S(=O)(=O)N2CCc3cccc(NCc4ccccc4)c32)cc1 [compound 34, Benzyl-[1-(4-methoxy-benzenesulfonyl)-2,3-dihydro-1H-indol-7-yl]-amine] | 162 to 163 °C |
| COc1ccc(S(=O)(=O)N2CCc3cccc(NS(=O)(=O)c4ccc(F)cc4)c32)cc1 [compound 31, 4-Fluoro-N-[1-(4-methoxy-benzenesulfonyl)-2,3-dihydro-1H-indol-7-yl]-benzenesulfonamide] | 104 to 105 °C |
| COc1ccc(S(=O)(=O)N2CCc3cccc(NC(=O)c4ccncc4)c32)cc1 (as salt: HCl) [compound 26, N-[1-(4-Methoxy-benzenesulfonyl)-2,3-dihydro-1H-indol-7-yl]-isonicotin amide] | 219 to 220 °C |
| COc1ccc(S(=O)(=O)N2CCc3cccc(NC(C)=O)c32)cc1 [compound 35, N-[1-(4-Methoxy-benzenesulfonyl)-2,3-dihydro-1H-indol-7-yl]acetamide] | 154 to 155 °C |
| COc1ccc(S(=O)(=O)N2CCc3cccc(NC(=O)N(C)c4ccccc4)c32)cc1 [compound 33, 3-[1-(4-Methoxy-benzenesulfonyl)-2,3-dihydro-1H-indol-7-yl]-1-methyl-1-phenyl-urea] | 199 to 201 °C |
| COc1ccc(S(=O)(=O)N2CCc3cccc(NC(=O)Oc4ccccc4)c32)cc1 | 164 to 166 °C |
| COc1ccc(S(=O)(=O)N2CCc3cccc(NC(=O)c4cccs4)c32)cc1 [compound 28, Thiophene-2-carboxylic acid [1-(4-methoxy-benzenesulfonyl)-2,3-dihydro-1H-indol-7-yl]-amide] | 188 to 189 °C |
| COc1ccc(S(=O)(=O)N2CCc3cccc(NS(=O)(=O)c4ccccc4)c32)cc1 [compound 29, N-[1-(4-Methoxy-benzenesulfonyl)-2,3-dihydro-1H-indol-7-yl]-benzenesulfonamide] | 143 to 145 °C |

Source: patent US7741495B2, “Indoline-sulfonamides compounds” (Taipei Medical University, priority 2006, dated 2010)
